Data on three compounds can be found in article PMC6389962 (Nature Communications, 2019).

The subject of data set [1] is db/db mice. Put plainly: Blood glucose study in db/db mice. Format: in vivo, mouse. Conditions: n = 5, 200 μg kg−1 (50 nmol kg−1) intraperitoneal, fed. An excerpt: Data are mean ± SEM. […] Source data are provided as a Source Data file
Data set [2] can be described thus: in vitro. Conditions: mouse, plasma; for remaining at 20 min, 5 µM / remaining at 1 h, 5 µM: pH 7.4, % remaining analogue. The method, then:
The oligomer was then diluted 1/50 with a solution of plasma/PBS pH 7.4 (1:1) to afford a final concentration of 5 µM and incubated at 37 °C (4 µL of the stock solution was diluted with 196 µL of plasma/PBS, pH 7.4, 1:1). Each compound was also incubated in the absence of plasma (196 µL of H2O/PBS, pH 7.4, 1:1). At the indicated time (20 min and 60 min) an aliquot of 70 µL was removed from each experimental reaction and pipetting into 175 µL of acetonitrile at 0 °C to quench the reaction (t = 0 min was determined using the reaction without plasma). The samples were frozen at –80 °C before analysis. The frozen samples were defrosted, stirred with a vortex 5 min and finally centrifuged 5 min at 16 °C (1500 × g). The supernatant was analysed by LC-MS. The time course of oligomer degradation was determined by integrating the area of the peak in the extracted ion chromatogram.
Supplementar y Figur e 2 : Mouse plasma degradation assay. […] Data are
mean ± SEM, n = 4. Source data are provided as a Source Data file (T able 2 tab).
Supplementar y Figur e 3.
Data are mean ± SEM, n = 3.
Source data are provided as a Source Data file […]

Data set [3] relates to normal mice (C57BL/6J). Put plainly: Blood glucose study in normal fed mice. The format is in vivo, mouse. More on the design: key to In vivo activity (indicator): + active; +++: + + + more active. Conditions: for effect on blood glucose concentration: normal fed C57BL/6J mice, n = 3, 5 μg per mouse (50 nmol kg−1) i.v., monitored 6 h. Here is the method: In the first study, we evaluated the effect of the analogues on the blood glucose concentration of normal mice (Fig. 3). The fed mice were treated with the analogues and their blood glucose concentration was monitored before and after dosing for 6 h. […] Indeed, a decrease of blood glucose concentration is observed after 30 min and the effect is preserved for 4 h after dosing.
Fig. 3 Blood glucose study in mice. a–c Blood glucose concentration in normal mice (C57BL/6J, male, 20–25 g, n = 3) before and after dosing: 5 μg per mouse (50 nmol kg^−1) i.v. Formulation: 20 μg mL^−1 in PBS 1×. The dosing was done at T0. Data are mean ± SEM. […] Source data are provided as a Source Data file
After the acclimation period (at least 5 days), mice (male C57BL/6J mice (Charles River laboratories) 8 weeks old, 20–25 g) were randomized into 10 groups (n = 3 per group) according to their body weight. They were acutely treated via i.v. route at 10 am (5 µg per mouse). Blood glucose was measured before dosing and at 30 min, 1, 2, 4, 6 h after dosing in fed conditions.

Data set [4] deals with T1, mouse GLP-1 receptor (Mus musculus, UniProt O35659).
T1 sequence (O35659 22-463): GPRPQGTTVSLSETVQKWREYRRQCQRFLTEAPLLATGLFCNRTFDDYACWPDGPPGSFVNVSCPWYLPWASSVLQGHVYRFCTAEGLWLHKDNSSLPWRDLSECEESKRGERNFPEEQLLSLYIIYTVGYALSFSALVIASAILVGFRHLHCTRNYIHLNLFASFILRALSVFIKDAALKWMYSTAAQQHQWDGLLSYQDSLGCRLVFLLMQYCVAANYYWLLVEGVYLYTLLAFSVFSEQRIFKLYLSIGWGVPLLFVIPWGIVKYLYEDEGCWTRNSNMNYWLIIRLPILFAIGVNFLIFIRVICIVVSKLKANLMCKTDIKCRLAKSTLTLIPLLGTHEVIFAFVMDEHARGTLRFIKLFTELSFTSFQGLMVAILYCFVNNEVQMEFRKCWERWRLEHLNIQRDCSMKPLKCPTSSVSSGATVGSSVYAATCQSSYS
The experiment in a line: cell-based. Conditions: for Emax: read-out: Top (best-fit value), variable slope four-parameter fit, unconstrained, 14: experiment 1.

Data set [5] concerns the target T1, mouse GLP-1 receptor. Conditions: for Potency (%), percentage of potency compare to GLP-1-G^2: cAMP production, from EC50.
A short description of data set [6]: NEP 24.11 degradation assay. The method, then: Stock solutions of the oligomers were prepared at a concentration of 400 µM in a solution of 50 mM HEPES buffer, 50 mM NaCl, 0.05% Tween-80, pH 8.0. Stock solution of NEP 24.11 was prepared at a concentration of 100 µg mL^−1 in water. Stability of oligomers to NEP 24.11 was assessed by conducting protease reaction in a 96-well plates at 20 °C. […] Each compound was also incubated in the absence of the enzyme (12 µL of HEPES buffer and 38 µL of oligomer). […] A portion of the quenched reaction solution was analysed by HPLC. The time course of peptide degradation was determined by integrating the area of each peak in a series of HPLC traces.

Starred links: 1 amine or outer side, 2 acyl side, 3 side chain; linkers in the order of their positions; H or OH if unused. Positions of bridges follow the written chain, without caps; N, C: chain ends. Residues, ends and D or L forms follow the SMILES beside them. Chains are numbered I, II in the order given. X3 = C[C@@H](CNC(=O)[*:1])NC(=O)NC[C@H](CCC(=O)O)NC(=O)NC[C@H](Cc1ccc(O)cc1)N[*:2]

For the compound `CCCCCCCCCCCCCCCC(=O)N[C@@H](CCC(=O)NCCCC[C@H](NC(=O)[C@H](C)NC(=O)[C@H](C)NC(=O)[C@H](CCC(N)=O)NC(=O)CNC(=O)[C@H](CCC(=O)O)NC(=O)[C@H](CC(C)C)NC(=O)[C@H](Cc1ccc(O)cc1)NC(=O)[C@H](CO)NC(=O)[C@H](CO)NC(=O)[C@@H](NC(=O)[C@H](CC(=O)O)NC(=O)[C@H](CO)NC(=O)[C@@H](NC(=O)[C@H](Cc1ccccc1)NC(=O)[C@@H](NC(=O)CNC(=O)[C@H](CCC(=O)O)NC(=O)[C@H](C)NC(=O)[C@@H](N)Cc1c[nH]cn1)[C@@H](C)O)[C@@H](C)O)C(C)C)C(=O)N[C@@H](CCC(=O)O)C(=O)N[C@@H](Cc1ccccc1)C(=O)N[C@H](C(=O)N[C@@H](C)C(=O)N[C@@H](Cc1c[nH]c2ccccc12)C(=O)N[C@@H](CC(C)C)C(=O)N[C@H](C(=O)N[C@@H](CCCNC(=N)N)C(=O)NCC(=O)N[C@@H](CCCNC(=N)N)C(=O)NCC(=O)O)C(C)C)[C@@H](C)CC)C(=O)O` [liraglutide], the “activity on blood glucose 48 h after a single dose” value in data set [1] is reported as “no more significant activity”.

For `CC[C@H](C)[C@H](NC(=O)[C@H](Cc1ccccc1)NC(=O)[C@H](CCC(=O)O)NC(=O)[C@H](CCCCN)NC(=O)[C@H](C)NC(=O)[C@H](C)NC(=O)[C@H](CCC(N)=O)NC(=O)CNC(=O)[C@H](CCC(=O)O)NC(=O)[C@H](CC(C)C)NC(=O)[C@H](Cc1ccc(O)cc1)NC(=O)NC[C@H](C)NC(=O)NC[C@H](C)NC(=O)N[C@@H](CNC(=O)[C@H](CO)NC(=O)[C@@H](NC(=O)[C@H](Cc1ccccc1)NC(=O)[C@@H](NC(=O)CNC(=O)[C@H](CCC(=O)O)NC(=O)CNC(=O)[C@@H](N)Cc1c[nH]cn1)[C@@H](C)O)[C@@H](C)O)CC(=O)O)C(=O)N[C@@H](C)C(=O)N[C@@H](Cc1c[nH]c2ccccc12)C(=O)N[C@@H](CC(C)C)C(=O)N[C@H](C(=O)N[C@@H](CCCCN)C(=O)NCC(=O)N[C@@H](CCCNC(=N)N)C(=O)NCC(N)=O)C(C)C` [compound 2, GG2[D^uαA^uA^u]^9-12], the half-life in data set [2] (pH 7.4) worked out at 0.283 h. For the same compound, in data set [2], the fraction remaining at 20 min, 5 µM stood at 38% and the fraction remaining at 1 h, 5 µM was found to be 21.2%. Further, the “effect on blood glucose concentration” value in data set [3] is “showed no activity”. Also, in data set [4], the EC50 came out at 13 nM and the Emax turned out to be 77.7%. Also, in data set [5], the “LogEC50 (best-fit value)” value was -7.897 and the “Potency (%), percentage of potency compare to GLP-1-G^2” value is given as 2%. In addition, the amount remaining at 6 h, […] in data set [6] (NEP 24.11 (isolated enzyme), pH 8, % remaining analogue, NEP 24.11 20 μg mL−1, […], pH 8.0, 20 °C, HPLC, time 6 h, replicate 1) worked out at 39.2%.

Turning to `CC[C@H](C)[C@H](NC(=O)[C@H](Cc1ccccc1)NC(=O)[C@H](CCC(=O)O)NC(=O)[C@H](CCCCN)NC(=O)[C@H](C)NC(=O)[C@H](C)NC(=O)NC[C@H](C)NC(=O)NC[C@H](CCC(=O)O)NC(=O)NC[C@H](Cc1ccc(O)cc1)NC(=O)[C@H](Cc1ccc(O)cc1)NC(=O)[C@H](CO)NC(=O)[C@H](CO)NC(=O)[C@@H](NC(=O)[C@H](CC(=O)O)NC(=O)[C@H](CO)NC(=O)[C@@H](NC(=O)[C@H](Cc1ccccc1)NC(=O)[C@@H](NC(=O)CNC(=O)[C@H](CCC(=O)O)NC(=O)CNC(=O)[C@@H](N)Cc1c[nH]cn1)[C@@H](C)O)[C@@H](C)O)C(C)C)C(=O)N[C@@H](C)C(=O)N[C@@H](Cc1c[nH]c2ccccc12)C(=O)N[C@@H](CC(C)C)C(=O)N[C@H](C(=O)N[C@@H](CCCCN)C(=O)NCC(=O)N[C@@H](CCCNC(=N)N)C(=O)NCC(N)=O)C(C)C` [compound 9, GG2[Y^uE^uA^u]^14-17] (I: AAKEFIAWLVKGRG-NH2 / II: H-HGEGTFTSDVSSY; linker I:N-II:C via X3), in data set [2], the amount remaining at 20 min, 5 µM was found to be 33.1% and the share remaining at 1 h, 5 µM was 11.7%. In addition, in data set [3] (mice, 50 nmol kg−1 i.v.), the “In vivo activity (indicator)” value was “+”. The “effect on blood glucose concentration” value in data set [3] was “showed efficacy but no improvement”. Moreover, in data set [4], the EC50 is 0.18 nM and the Emax came to 88.2%. Also, in data set [5], the “LogEC50 (best-fit value)” value is given as -9.749 and the “Potency (%), percentage of potency compare to GLP-1-G^2” value amounted to 135%. In data set [6] (isolated enzyme neprilysin, pH 8), this compound had a half-life of 3 h.
